Read-outs that look alike come from different tables or passages of the source.

The term IC50 denotes the concentration that inhibits the measured activity by half. For orientation: melting point means the temperature of the solid-liquid transition.

Series [1] has as its target T1, APN (Microsomal Leucine aminopeptidase from porcine kidney EC 3.4.11.2) (Sus scrofa, UniProt P15145).
T1 construct: Microsomal Leucine aminopeptidase from porcine kidney EC 3.4.11.2, Type IV-S, ammonium sulfate suspension; purchased Sigma-Aldrich; host or cells: porcine kidney (tissue-derived, microsomal)
T1 sequence (P15145 1-963): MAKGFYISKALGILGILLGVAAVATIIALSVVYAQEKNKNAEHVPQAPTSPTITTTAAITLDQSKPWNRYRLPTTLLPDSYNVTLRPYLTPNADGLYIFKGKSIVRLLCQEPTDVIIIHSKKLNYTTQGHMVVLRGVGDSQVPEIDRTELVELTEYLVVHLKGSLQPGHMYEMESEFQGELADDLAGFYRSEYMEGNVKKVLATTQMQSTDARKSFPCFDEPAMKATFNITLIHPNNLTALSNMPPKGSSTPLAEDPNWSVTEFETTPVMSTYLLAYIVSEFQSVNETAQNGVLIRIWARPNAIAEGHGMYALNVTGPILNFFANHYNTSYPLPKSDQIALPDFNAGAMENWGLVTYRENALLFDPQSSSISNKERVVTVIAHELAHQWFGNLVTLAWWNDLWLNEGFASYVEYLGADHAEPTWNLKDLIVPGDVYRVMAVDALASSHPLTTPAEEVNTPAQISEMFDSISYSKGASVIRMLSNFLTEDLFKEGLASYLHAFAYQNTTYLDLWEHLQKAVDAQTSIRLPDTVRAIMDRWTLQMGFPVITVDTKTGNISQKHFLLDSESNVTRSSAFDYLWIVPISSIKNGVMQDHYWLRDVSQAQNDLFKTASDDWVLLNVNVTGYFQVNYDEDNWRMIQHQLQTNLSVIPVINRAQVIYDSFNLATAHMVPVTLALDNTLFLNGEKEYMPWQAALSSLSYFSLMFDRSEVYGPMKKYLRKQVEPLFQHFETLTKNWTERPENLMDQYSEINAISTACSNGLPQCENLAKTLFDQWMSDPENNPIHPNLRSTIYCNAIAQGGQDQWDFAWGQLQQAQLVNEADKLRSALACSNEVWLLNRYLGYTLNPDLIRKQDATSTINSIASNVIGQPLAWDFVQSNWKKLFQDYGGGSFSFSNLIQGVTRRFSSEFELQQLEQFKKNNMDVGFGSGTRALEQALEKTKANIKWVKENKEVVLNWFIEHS
Put plainly: APN inhibitory activity, spectrophotometry with L-leucine-p-nitroanilide. Format: biochemical. The protocol:
APN inhibitory activity was determined using a standardized spectrophotometry protocol using L-leucine-p-nitroanilide as a chromogenic substrate for APN. Measurements were performed in triplicate at 405 nm at a Cytation 3 well-plate reader.
In some compounds, solubility problems occurred, which complicated the inhibition activity determination. We overcame these either by the use of cosolvents or by an alternative HPLC approach. The details are summarized in the Supplementary Materials.
IC50 values against enzyme APN were determined using L-Leucine-p-nitroanilide (Sigma-Aldrich, Darmstadt, Germany) as the substrate and Microsomal Leucine aminopeptidase from porcine kidney EC 3.4.11.2, Type IV-S, ammonium sulfate suspension, 10–40 units/mg protein (Sigma-Aldrich, Darmstadt, Germany). The assay was performed by a Cytation 3 Cell Imaging Multi-Mode Reader (BioTek Instruments, Inc., Winooski, VT, USA) with appropriate Gen-5 software in 96-well plates. A 0.02 mol/L TRIS-HCl buffer solution at pH 7.5 was used as the assay buffer. All tested compounds were dissolved in TRIS-HCl buffer solution and compounds with poor solubility were dissolved in a small amount of DMSO or NMP used as a cosolvent. The assay mixture, which contained a variable amount of inhibitor solution (from 0 up to 80 μL), 10 μL of the enzyme solution, 5 μL of the substrate solution, and the assay buffer adjusted to 200 μL, was incubated at 37 °C for 40 min with short orbital shaking for 10 s. The hydrolysis of the substrate was monitored by the optical photometric method of absorbance in the visible and ultraviolet regions at a wavelength of 405 nm. The enzyme activity inhibitory rate was calculated from the measures of absorbance. The results of the 50% inhibitory activity of the enzyme (IC50) were determined through a regression analysis of the concentration/absorbance data by GraFit 5 software (Erithacus Software Ltd., East Grinstead, UK).

Series [2] deals with MCF-7 cells. Put plainly: WST-1 analysis of cell proliferation, MCF-7. The conditions noted are these: for Proliferation of control: 48 h. Format: cell-based, human. Here is the method:
(§1) The results are shown in Table 4, Figure 2, and the Supplementary Materials.
(§2) A human monocytic leukemia cell line (THP-1), human breast adenocarcinoma cells (MCF-7), and human prostate cancer (DU-145) cell line were obtained from ATCC. THP-1 and DU-145 cells were cultivated in an RPMI 1640 culture medium and MCF-7 cells were cultivated in a DMEM medium, both supplemented with the antibiotic solution (100 U/mL of penicillin, 100 µg/mL of streptomycin) and 10% FBS. Cells were maintained in a humidified incubator with 5% CO2 at 37 °C and were regularly tested for the presence of mycoplasma contamination.
(§3) THP-1, MCF-7, and DU-145 cells were seeded in 96-well plates. Adherent cell lines were allowed to attach to the wells for 24 h. Cells were then treated with various concentrations of tested compounds to reach the final concentrations ranging between 1 µM and 100 µM and were incubated for 48 h. Cell proliferation was determined using Cell Proliferation Reagent WST-1 (2-(4-iodophenyl)-3-(4-nitrophenyl)-5-(2,4-disulfophenyl)-2H-tetrazolium) (Roche Diagnostics, Mannheim, Germany), as previously described. WST-1 analysis was performed in three independent experiments, with each condition tested in triplicate. The IC50 values were determined using the nonlinear regression four-parameter logistic model using GraphPad Prism 5.00 software (GraphPad Software, San Diego, CA, USA). Statistical significance between the values was assessed by one-way analysis of variance (ANOVA) paired with Dunnett’s post hoc test using GraphPad Prism 5.00 software (GraphPad Software, San Diego, CA, USA) at levels of * p < 0.05, ** p < 0.01, and *** p < 0.001.
On the technique in general: Formazan colour is commonly taken as a measure of viable cells.

The subject of series [3] is THP-1 cells. Briefly: WST-1 analysis of cell proliferation, THP-1. The class given is cell-based, human. The settings on record: for Proliferation of control: 48 h. Here is the method:
as §1, §2, §3

Series [4] relates to DU-145 cells. Briefly: WST-1 analysis of cell proliferation, DU-145. The class given is cell-based, human. The settings on record: for Proliferation of control: 48 h. The protocol:
as §1, §2, §3

Where [5] appears, read: DMSO as a cosolvent, read-out: IC50 Experimental.
The mark [6] stands for this setting: logarithm of IC50 in µmol/L, read-out: Log IC50 Experimental (converted).
[7] abbreviates: TRIS-HCl buffer pH 7.5, 37 °C, 40 min, no cosolvent noted, read-out: IC50 Experimental.
Setting [8] is: NMP as a cosolvent, read-out: IC50 Experimental.

With `CCN(CC)CC(=O)Nc1ccc(C(C)=O)cc1` [14-2-1], the IC50 in series [1] (setting [5]) and in series [1] (setting [6]) was 366 µM in each case.
Regarding `CC(=O)c1ccc(NC(=O)CN2CCCCC2)cc1` [14-6-1], the IC50 in series [1] (setting [7]) amounted to 173 µM.
Turning to `CC(=O)c1ccc(NC(=O)CN2CCOCC2)cc1` [14-8-1], in series [1] (setting [7]), the IC50 is 425 µM.
`CC(=O)c1ccc(NC(=O)CN2CCN(Cc3ccccc3)CC2)cc1` [14-10-1]: the IC50 in series [1] (setting [5]) was found to be 427 µM.
In the case of `CC(=NNC(N)=S)c1ccccc1NC(=O)CN1CCCCC1` [22-6-1], the IC50 in series [1] (setting [7]) was determined as 778 µM.
Consider `CC(=NNC(N)=S)c1ccccc1NC(=O)CN1CCCCCC1` [22-7-1], for which the IC50 in series [1] (setting [7]) and in series [1] (setting [6]) was 169 µM in each case.
With `CCCN(CCC)CC(=O)Nc1ccc(C(C)=NNC(N)=S)cc1` [24-3-1], the IC50 in series [1] (setting [7]) and in series [1] (setting [6]) was 1270 µM throughout.
`CCCCN(CCCC)CC(=O)Nc1ccc(C(C)=NNC(N)=S)cc1` [24-4-1]: the IC50 in series [1] (setting [8]) and in series [1] (setting [6]) was 1680 µM throughout.
Consider `CC(=NNC(N)=S)c1ccc(NC(=O)CN2CCCC2)cc1` [24-5-1], for which the IC50 in series [1] (setting [8]) and in series [1] (setting [6]) was 35.6 µM in each case.
Take `CC(=NNC(N)=S)c1ccc(NC(=O)CN2CCCCC2)cc1` [24-6-1]: the IC50 in series [1] (setting [8]) and in series [1] (setting [6]) was 1550 µM in each case.
For `CC(=NNC(N)=S)c1ccc(NC(=O)CN2CCCCCC2)cc1` [24-7-1], the IC50 in series [1] (setting [7]) and in series [1] (setting [6]) was 44.1 µM each time.
With `CC(=NNC(N)=S)c1ccc(NC(=O)CN2CCOCC2)cc1` [24-8-1, 4-[(morpholine-4-yl)acetamido]acetophenone thiosemicarbazone], the IC50 in series [1] (setting [6]) was 6.79 µM.
Regarding `CC(=NNC(N)=O)c1ccc(NC(=O)CN2CCCCC2)cc1` [34-6-1, 4-[2-(piperidine-1-yl)acetamido]acetophenone semicarbazone], the IC50 was > 100 µM in series [2] (Homo sapiens, MCF7, MCF-7, 48 h incubation); > 100 µM in series [3] (Homo sapiens, THP-1, 48 h incubation); > 100 µM in series [4] (Homo sapiens, DU-145, 48 h incubation); 18.4 µM in series [1] (setting [7]); 18.4 µM in series [1] (setting [6]). Besides, the Proliferation of control in series [2] (MCF-7, 1 μmol/l) came out at 100.09%; in series [2] (MCF-7, 5 μmol/l) it was 96.80%; in series [2] (MCF-7, 10 μmol/l) it was 97.62%; in series [2] (MCF-7, 30 μmol/l) it was 96.30%; in series [2] (MCF-7, 50 μmol/l), 99.57%; in series [2] (MCF-7, 75 μmol/l), 85.41%. Also, the Proliferation of control worked out at 81.17% in series [2] (MCF-7, 100 μmol/l); 97.78% in series [3] (THP-1, 1 μmol/l); 97.58% in series [3] (THP-1, 5 μmol/l); 93.87% in series [3] (THP-1, 10 μmol/l); 86.64% in series [3] (THP-1, 30 μmol/l); 73.78% in series [3] (THP-1, 50 μmol/l). Moreover, the Proliferation of control was 71.38% in series [3] (THP-1, 75 μmol/l); 69.17% in series [3] (THP-1, 100 μmol/l); 98.33% in series [4] (DU-145, 1 μmol/l); 98.26% in series [4] (DU-145, 5 μmol/l); 97.24% in series [4] (DU-145, 10 μmol/l); 97.25% in series [4] (DU-145, 30 μmol/l). In addition, the Proliferation of control is on record as 96.59% in series [4] (DU-145, 50 μmol/l); 99.61% in series [4] (DU-145, 75 μmol/l); 99.25% in series [4] (DU-145, 100 μmol/l). Moreover, in series [4] (DU-145, no APN expression), the “antiproliferative effect (in words)” value is on record as “did not affect proliferation at all”.
As to `CC(=NNC(N)=O)c1ccc(NC(=O)CN2CCOCC2)cc1` [34-8-1], the melting point is 231.1 to 231.8 °C. Also, the IC50 in series [1] (setting [7]) came to 1640 µM. Further, the IC50 in series [1] (setting [6]) was 1640 µM.

For the origin of these results see article PMC9456425, “Aminopeptidase N Inhibitors as Pointers for Overcoming Antitumor Treatment Resistance” (International Journal of Molecular Sciences, 2022).
